The values below come from patent publication US11919887B2, “Substituted tetrahydrofurans as modulators of sodium channels” (Vertex Pharmaceuticals Incorporated, priority 2019, dated 2024).

Read-outs that look alike come from different tables or passages of the source.

For this assay, the target named is human Nav 1.8 (Homo sapiens, UniProt Q9Y5Y9). The assay is described as follows: E-VIPR assay detecting and measuring Nav inhibition (HEK cells expressing truncated human Nav 1.8). It counts as cell-based. The settings on record: read-out: IC50. An excerpt: Sodium ion channels are voltage-dependent proteins that can be activated by inducing membrane voltage changes by applying electric fields. The electrical stimulation instrument and methods of use, referred to as E-VIPR, are described in International Publication No. WO 2002/008748 A3 and C.-J. Huang et al. Characterization of voltage-gated sodium channel blockers by electrical stimulation and fluorescence detection of membrane potential, 24 Nature Biotech. 439-46 (2006), both of which are incorporated by reference in their entirety. The instrument comprises a microtiter plate handler, an optical system for exciting the coumarin dye while simultaneously recording the coumarin and oxonol emissions, a waveform generator, a current- or voltage-controlled amplifier, and parallel electrode pairs that are inserted into assay plate wells. Under integrated computer control, this instrument passes user-programmed electrical stimulus protocols to cells within the wells of the microtiter plate.
16-20 hours prior to running the assay on E-VIPR, HEK cells expressing a truncated form of human Nav 1.8 with full channel activity were seeded into microtiter 384-well plates, pre-coated with matrigel, at a density of 25,000 cells per well. 2.5-5% KIR2.1 Bacmam virus was added to the final cell suspension before seeding into cell plates. HEK cells were grown in Dulbecco's Modified Eagle's Medium (DMEM) supplemented with 10% FBS (Fetal Bovine Serum, qualified; Sigma #F4135), 1% NEAA (Non-Essential Amino Acids, Gibco #11140), 1% HEPES (Gibco #15630), 1% Pen-Strep (Penicillin-Streptomycin; Gibco #15140) and 5 μg/ml Blasticidin (Gibco #R210-01). Cells were expanded in vented cap cell culture flasks, with 90-95% humidity and 5% CO2.
Human Serum (HS, Millipore #S1P1-01KL, or Sigma SLBR5469V and SLBR5470V as a 50%/50% mixture, for 25% assay final concentration)
Bath1 Buffer: • Sodium Chloride 160 mM (9.35 g/L), Potassium Chloride, 4.5 mM (0.335 g/L), Glucose 10 mM (1.8 g/L), Magnesium Chloride (Anhydrous) 1 mM (0.095 g/L), Calcium Chloride 2 mM (0.222 g/L), HEPES 10 mM (2.38 g/L) in water.
Na/TMA Cl Bath1 Buffer: • Sodium Chloride 96 mM (5.61 g/L), Potassium Chloride 4.5 mM (0.335 g/L), Tetramethylammonium (TMA)-Cl 64 mM (7.01 g/L), Glucose 10 mM (1.8 g/L), Magnesium Chloride (Anhydrous) 1 mM (0.095 g/L), Calcium Chloride 2 mM (0.222 g/L) HEPES 10 mM (2.38 g/L) in water.
Hexyl Dye Solution (2× concentration): • Bath1 Buffer containing 0.5% β-cyclodextrin (made fresh prior to each use, Sigma #C4767), 8 μM CC2-DMPE and 2 μM DiSBAC6(3). The solution was made by adding 10% Pluronic F127 stock equal to combined volumes of CC2-DMPE and DiSBAC6(3). The order of preparation was first mix Pluronic and CC2-DMPE, then add DiSBAC6(3), then while vortexing add Bath1/β-Cyclodextrin.
Compound Loading Buffer (2×concentration): Na/TMA Cl Bath1 Buffer containing HS (omitted in experiments run in the absence of human serum (HS)) 50%, VABSC-1 1 mM, BSA 0.2 mg/ml (in Bath-1), KCl 9 mM, DMSO 0.75%.
Assay Protocol (7 Key Steps): • 1) To reach the final concentration in each well, 400 nL of each compound was pre-spotted (in neat DMSO) into polypropylene compound plates at 250×desired final concentration from an intermediate stock concentration of 0.075 mM, in an 11 point dose response, 3-fold dilution, resulting in a top dose of 300 nM final concentration in the cell plate. Vehicle control (neat DMSO), and positive control (an established Nav1.8 inhibitor, 25 μM final in assay in DMSO) were added manually to the outermost columns of each plate respectively. The compound plate was backfilled with 45 μL per well of Compound Loading Buffer resulting in a 250 fold dilution of compound following a 1:1 transfer of compound into the cell plate (see Step 6). Final DMSO concentration for all wells in the assay was 0.625% (0.75% DMSO was supplemented to the Compound Loading Buffer for a final DMSO concentration of 0.625%). […]

[1] abbreviates: in the Presence of Human Serum in the E-VIPR Assay.
Where [2] appears, read: in the Absence of Human Serum in the E-VIPR Assay.

Chain of human Nav 1.8 (Q9Y5Y9 whole entry, looked up, the tested form may be a part): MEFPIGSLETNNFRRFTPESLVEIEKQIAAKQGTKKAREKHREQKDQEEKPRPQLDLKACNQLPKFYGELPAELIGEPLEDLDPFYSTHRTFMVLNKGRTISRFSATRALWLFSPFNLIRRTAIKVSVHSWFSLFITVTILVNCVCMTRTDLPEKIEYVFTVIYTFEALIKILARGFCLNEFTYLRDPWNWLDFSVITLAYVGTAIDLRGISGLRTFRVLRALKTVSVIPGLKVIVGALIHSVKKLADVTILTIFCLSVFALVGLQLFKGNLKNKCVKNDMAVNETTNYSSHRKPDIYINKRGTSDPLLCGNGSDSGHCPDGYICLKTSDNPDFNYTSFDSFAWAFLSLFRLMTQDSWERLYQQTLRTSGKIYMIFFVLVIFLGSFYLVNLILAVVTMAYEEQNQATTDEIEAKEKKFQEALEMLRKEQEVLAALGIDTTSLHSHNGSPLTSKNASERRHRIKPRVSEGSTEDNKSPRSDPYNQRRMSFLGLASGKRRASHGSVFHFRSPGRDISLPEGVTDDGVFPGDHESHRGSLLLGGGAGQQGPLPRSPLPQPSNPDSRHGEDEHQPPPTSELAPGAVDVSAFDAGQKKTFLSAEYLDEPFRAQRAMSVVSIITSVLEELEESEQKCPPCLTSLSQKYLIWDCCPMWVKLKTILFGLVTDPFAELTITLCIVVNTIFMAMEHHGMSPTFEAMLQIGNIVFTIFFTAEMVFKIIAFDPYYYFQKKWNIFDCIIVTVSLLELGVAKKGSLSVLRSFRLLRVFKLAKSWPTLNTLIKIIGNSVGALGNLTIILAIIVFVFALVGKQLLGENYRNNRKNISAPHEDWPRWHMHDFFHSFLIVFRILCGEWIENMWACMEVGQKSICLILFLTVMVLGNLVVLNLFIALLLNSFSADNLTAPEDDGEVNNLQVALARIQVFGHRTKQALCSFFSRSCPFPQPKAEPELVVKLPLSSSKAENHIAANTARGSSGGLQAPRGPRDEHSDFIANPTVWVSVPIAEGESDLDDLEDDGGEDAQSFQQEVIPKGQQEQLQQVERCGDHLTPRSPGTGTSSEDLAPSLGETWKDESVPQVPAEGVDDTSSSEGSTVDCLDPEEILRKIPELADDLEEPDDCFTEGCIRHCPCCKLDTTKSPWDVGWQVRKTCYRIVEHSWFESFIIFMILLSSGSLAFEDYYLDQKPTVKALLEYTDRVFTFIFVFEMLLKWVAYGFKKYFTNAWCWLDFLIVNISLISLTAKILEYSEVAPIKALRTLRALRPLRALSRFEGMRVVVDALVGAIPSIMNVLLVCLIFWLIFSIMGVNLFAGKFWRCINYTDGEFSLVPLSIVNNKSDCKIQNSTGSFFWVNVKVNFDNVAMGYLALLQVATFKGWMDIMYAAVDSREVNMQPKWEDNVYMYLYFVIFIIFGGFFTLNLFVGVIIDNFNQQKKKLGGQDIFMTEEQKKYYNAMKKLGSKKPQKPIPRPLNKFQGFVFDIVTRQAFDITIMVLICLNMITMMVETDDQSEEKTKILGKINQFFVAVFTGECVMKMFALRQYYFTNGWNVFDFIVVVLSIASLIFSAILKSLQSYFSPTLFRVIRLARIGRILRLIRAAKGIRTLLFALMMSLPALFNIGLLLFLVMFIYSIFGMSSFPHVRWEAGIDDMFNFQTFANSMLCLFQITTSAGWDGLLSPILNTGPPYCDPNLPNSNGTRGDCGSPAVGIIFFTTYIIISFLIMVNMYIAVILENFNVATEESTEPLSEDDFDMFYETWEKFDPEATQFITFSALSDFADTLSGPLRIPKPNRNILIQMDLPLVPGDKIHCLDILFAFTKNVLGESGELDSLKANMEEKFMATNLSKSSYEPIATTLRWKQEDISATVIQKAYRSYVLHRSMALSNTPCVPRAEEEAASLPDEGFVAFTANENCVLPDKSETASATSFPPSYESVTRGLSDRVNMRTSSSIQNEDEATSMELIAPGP

A word on the IC50: it is the concentration needed to halve the response being measured. `COc1c([C@H]2C[C@](C)(C(C)(F)F)O[C@@H]2C(=O)Nc2ccnc(C(N)=O)c2)ccc(F)c1F` (single isomer, unassigned) [Compound 87]: the IC50 under setting [1] was in the range of 100 to 1000 nM.
Consider `COc1c([C@H]2[C@H](C(=O)Nc3cc(C(N)=O)ncc3F)O[C@@](C)(C(F)(F)F)[C@H]2C)ccc(F)c1F` [Compound 122, 4-[[(2R,3S,4S,5R)-3-(3,4-difluoro-2-methoxy-phenyl)-4,5-dimethyl-5-(trifluoromethyl)tetrahydrofuran-2-carbonyl]amino]-5-fluoro-pyridine-2-carboxamide], for which, under setting [2], the IC50 is less than 10 nM.
Turning to `COc1c([C@H]2[C@H](C(=O)Nc3cccc(C(N)=O)n3)O[C@@](C)(C(F)(F)F)[C@H]2C)ccc(F)c1F` [Compound 114, 6-[[(2R,3S,4S,5R)-3-(3,4-difluoro-2-methoxy-phenyl)-4,5-dimethyl-5-(trifluoromethyl)tetrahydrofuran-2-carbonyl]amino]pyridine-2-carboxamide], the IC50 under setting [2] was 10 to 100 nM.
As for `COc1c([C@@H]2[C@H](C)[C@H](C)O[C@H]2C(=O)Nc2ccnc(C(N)=O)c2)ccc(F)c1F` (stereo in doubt) [Compound 108, rel-(2R,3S,4S,5S)-4-[[3-(3,4-difluoro-2-methoxy-phenyl)-4,5-dimethyl-tetrahydrofuran-2-carbonyl]amino]pyridine-2-carboxamide], under setting [1], the IC50 lay in the range of 100 to 1000 nM.
Same read-out and setting: in the case of `COc1c([C@H]2[C@H](C(=O)Nc3ccnc(C(N)=O)c3)O[C@@](C)(C(F)(F)F)[C@H]2C)ccc(F)c1C(F)F` (single isomer, unassigned) [Compound 44] it was less than 10 nM.
For `C[C@H]1[C@@H](c2ccc(F)c(F)c2OCC2CC(F)(F)C2)[C@H](C(=O)Nc2ccnc(C(N)=O)c2)O[C@@]1(C)C(F)(F)F` [Compound 146, 4-[[(2R,3S,4S,5R)-3-[2-[(3,3-difluorocyclobutyl)methoxy]-3,4-difluoro-phenyl]-4,5-dimethyl-5-(trifluoromethyl)tetrahydrofuran-2-carbonyl]amino]pyridine-2-carboxamide], under setting [1], the IC50 was 10 to 100 nM.
As to `Cc1c([C@@H]2[C@@H](C)[C@@](C)(C(F)(F)F)O[C@H]2C(=O)Nc2ccnc(C(N)=O)c2)ccc(F)c1F` (stereo in doubt) [Compound 133, rel-(2R,3S,4R,5S)-4-[[3-(3,4-difluoro-2-methyl-phenyl)-4,5-dimethyl-5-(trifluoromethyl)tetrahydrofuran-2-carbonyl]amino]pyridine-2-carboxamide], under setting [2], the IC50 lay in the range of 10 to 100 nM.
For the compound `COc1c([C@H]2C[C@@H](C(C)(C)C)O[C@@H]2C(=O)Nc2ccnc(C(N)=O)c2)ccc(F)c1F` (single isomer, unassigned) [Compound 65], the concentration for half-maximal inhibition (IC50) under setting [1] was greater than 1000 nM.
Regarding `CNC(=O)c1cc(NC(=O)[C@H]2O[C@@](C)(C(F)(F)F)[C@H](C)[C@@H]2c2ccc(F)c(F)c2OC(F)F)ccn1` (stereo in doubt) [Compound 13, rel-(2S,3R,4R,5R)-4-[[3-[2-(difluoromethoxy)-3,4-difluoro-phenyl]-4,5-dimethyl-5-(trifluoromethyl)tetrahydrofuran-2-carbonyl]amino]-N-methyl-pyridine-2-carboxamide], the IC50 under setting [1] was 10 to 100 nM.
`COc1c([C@@H]2[C@@H](C(=O)Nc3ccnc(C(N)=O)c3)O[C@](C)(C(F)(F)F)[C@@H]2C)ccc(F)c1C(F)F` (single isomer, unassigned) [Compound 45]: under setting [1], the IC50 lay in the range of 10 to 100 nM.
In the case of `COc1c([C@@H]2[C@@H](C)C(C)(C)O[C@H]2C(=O)Nc2ccnc(C(N)=O)c2)ccc(F)c1F` (single isomer, unassigned) [Compound 103], under setting [1], the IC50 is greater than 1000 nM.
`COc1cc(F)ccc1[C@@H]1[C@@H](C(=O)Nc2ccnc(C(N)=O)c2)O[C@](C)(C(F)(F)F)[C@@H]1C` (single isomer, unassigned) [Compound 3b]: the IC50 under setting [1] was less than 10 nM.
In the case of `COc1c([C@@H]2C[C@@](C)(C(C)(F)F)O[C@H]2C(=O)Nc2ccnc(C(N)=O)c2)ccc(F)c1F` (single isomer, unassigned) [Compound 84], the IC50 under setting [1] was greater than 1000 nM.
With `COc1cc(F)ccc1[C@H]1C[C@@](C)(C(F)(F)F)O[C@H]1C(=O)Nc1ccnc(C(N)=O)c1` (single isomer, unassigned) [Compound 69], the IC50 under setting [1] is greater than 1000 nM.
Still for that read-out and setting: in the case of `C[C@H]1[C@@H](c2ccc(F)c(F)c2O)[C@H](C(=O)Nc2cc[n+]([O-])c(C(N)=O)c2)O[C@@]1(C)C(F)(F)F` [Compound 57, 4-[[(2R,3S,4S,5R)-3-(3,4-difluoro-2-hydroxy-phenyl)-4,5-dimethyl-5-(trifluoromethyl)tetrahydrofuran-2-carbonyl]amino]-1-oxido-pyridin-1-ium-2-carboxamide] it was greater than 1000 nM.
With `C=Cc1c([C@H]2[C@H](C(=O)Nc3ccnc(C(N)=O)c3)O[C@@](C)(C(F)(F)F)[C@H]2C)ccc(F)c1F` [Compound 149, 4-[[(2R,3S,4S,5R)-3-(3,4-difluoro-2-vinyl-phenyl)-4,5-dimethyl-5-(trifluoromethyl)tetrahydrofuran-2-carbonyl]amino]pyridine-2-carboxamide], the IC50 under setting [2] was less than 10 nM.
For the compound `COc1cc(C(F)(F)F)ncc1[C@H]1[C@H](C(=O)Nc2ccnc(C(N)=O)c2)O[C@@](C)(C(F)(F)F)[C@H]1C` (racemic) [compound 139], the IC50 under setting [2] was greater than 1000 nM.
In the case of `Cc1c(F)ccc([C@@H]2[C@@H](C(=O)Nc3ccnc(C(N)=O)c3)O[C@](C)(C(F)(F)F)[C@@H]2C)c1OC(F)F` (stereo in doubt) [compound 53], the IC50 under setting [1] was less than 10 nM.
In the case of `C[C@@]1(C(F)(F)F)C[C@H](c2ccc(F)cc2OC(F)F)[C@@H](C(=O)Nc2ccnc(C(N)=O)c2)O1` [compound 73], the half-inhibitory concentration (IC50) under setting [1] is greater than 1000 nM.
As for `C[C@H]1[C@@H](c2ccc(F)c(F)c2OC(F)F)[C@H](C(=O)Nc2cccc(C(N)=O)c2)O[C@@]1(C)C(F)(F)F` (single isomer, unassigned) [compound 52], the IC50 under setting [1] was less than 10 nM.
`COc1c([C@@H]2C[C@](C)(CC(F)(F)F)O[C@H]2C(=O)Nc2ccnc(C(N)=O)c2)ccc(F)c1F` (single isomer, unassigned) [Compound 81]: the IC50 under setting [1] lay in the range of 100 to 1000 nM.
On to `COc1c([C@H]2C[C@@](C)(CC(F)(F)F)O[C@@H]2C(=O)Nc2ccnc(C(N)=O)c2)ccc(F)c1F` (single isomer, unassigned) [Compound 82], for which the IC50 under setting [1] was greater than 1000 nM.
In the case of `COc1c([C@H]2[C@H](C(=O)Nc3cc(F)nc(C(N)=O)c3)O[C@@](C)(C(F)(F)F)[C@H]2C)ccc(F)c1F` [Compound 127, 4-[[(2R,3S,4S,5R)-3-(3,4-difluoro-2-methoxy-phenyl)-4,5-dimcthyl-5-(trifluoromethyl)tetrahydrofuran-2-carbonyl]amino]-6-fluoro-pyridine-2-carboxamide], the IC50 under setting [2] is less than 10 nM.
Turning to `COc1c([C@H]2[C@H](C(=O)Nc3cc[n+]([O-])c(C(N)=O)c3)O[C@@](C)(C(F)(F)F)[C@H]2C)ccc(F)c1F` [Compound 19, (2R,3S,4S,5R)-4-[[3-(3,4-difluoro-2-methoxy-phenyl)-4,5-dimethyl-5-(trifluoromethyl)tetrahydrofuran-2-carbonyl]amino]-1-oxido-pyridin-1-ium-2-carboxamide], the IC50 under setting [1] is less than 10 nM.
